# Experiments:
# Conditions in all cases: 72 h
# Caco-2 [1] = experiment: cell viability relative to DMSO; higher = less toxic
# Calu-3 [2] = experiment: as above
# HepG2 [3] = experiment: as above
# U2OS [4] = experiment: as above
# Vero E6 [5] = experiment: as above
# Caco-2 [6] = experiment: relative viability EC50 (midpoint between 100% and the lowest measured viability); higher = less toxic
# Calu-3 [7] = experiment: as above
# HepG2 [8] = experiment: as above
# U2OS [9] = experiment: as above
# Vero E6 [10] = experiment: as above
# Caco-2 [11] = experiment: drug sensitivity score (DSS) for viability; higher = more toxic; extreme values may be limits of the assay
# Calu-3 [12] = experiment: as above
# HepG2 [13] = experiment: as above
# U2OS [14] = experiment: as above
# Vero E6 [15] = experiment: as above
SMILES,cell viability (Caco-2 [1]; 1 nM) [%],cell viability (Caco-2 [1]; 10 nM) [%],cell viability (Caco-2 [1]; 100 nM) [%],cell viability (Caco-2 [1]; 1000 nM) [%],cell viability (Caco-2 [1]; 10000 nM) [%],cell viability (Calu-3 [2]; 1 nM) [%],cell viability (Calu-3 [2]; 10 nM) [%],cell viability (Calu-3 [2]; 100 nM) [%],cell viability (Calu-3 [2]; 1000 nM) [%],cell viability (Calu-3 [2]; 10000 nM) [%],cell viability (HepG2 [3]; 1 nM) [%],cell viability (HepG2 [3]; 10 nM) [%],cell viability (HepG2 [3]; 100 nM) [%],cell viability (HepG2 [3]; 1000 nM) [%],cell viability (HepG2 [3]; 10000 nM) [%],cell viability (U2OS [4]; 1 nM) [%],cell viability (U2OS [4]; 10 nM) [%],cell viability (U2OS [4]; 100 nM) [%],cell viability (U2OS [4]; 1000 nM) [%],cell viability (U2OS [4]; 10000 nM) [%],cell viability (Vero E6 [5]; 1 nM) [%],cell viability (Vero E6 [5]; 10 nM) [%],cell viability (Vero E6 [5]; 100 nM) [%],cell viability (Vero E6 [5]; 1000 nM) [%],cell viability (Vero E6 [5]; 10000 nM) [%],relative viability EC50 (Caco-2 [6]) [µM],relative viability EC50 (Calu-3 [7]) [µM],relative viability EC50 (HepG2 [8]) [µM],relative viability EC50 (U2OS [9]) [µM],relative viability EC50 (Vero E6 [10]) [µM],drug sensitivity score (Caco-2 [11]),drug sensitivity score (Calu-3 [12]),drug sensitivity score (HepG2 [13]),drug sensitivity score (U2OS [14]),drug sensitivity score (Vero E6 [15])
Cc1cccc(C)c1-n1c(=O)c2cnc(Nc3ccc(N4CCN(C)CC4)cc3)nc2n2c3ccccc3nc12 [TC-S-7003],88.3,87.9,88.3,66.1,11.6,106,101,95.6,70.5,5.2,98,101,82,58.6,9,97,98.2,91.8,56.5,0.4,96.9,97.4,71.7,54.6,10.6,1.31,1.4,0.915,1.15,0.527,8.7,9.4,10.5,10.5,12.6
COc1ncc2cc(C(=O)Nc3cc(C(=O)NCc4cccc(Cl)c4)ccc3Cl)c(=O)[nH]c2n1 [TC-S-7004],111,107,99.6,98.6,95,94.8,94.8,105,104,104,98.6,97.4,100,87.7,101,98.8,102,103,103,99.1,104,101,102,100,95,> 10,> 10,> 10,> 10,> 10,0,0,0,0,0
CCCCCCC(=O)OC1CC(C)(C)NC(C)(C)C1 [TMPH],106,99.4,99.3,103,102,102,89.7,96,108,98.7,109,93.5,99.5,92.9,106,99.7,101,98.9,99.6,99.1,99,96.4,101,95.2,98.4,> 10,> 10,> 10,> 10,> 10,0,0,0,0,0
CC(=O)N[C@@H](CSC/C=C(\C)CC/C=C(\C)CCC=C(C)C)C(=O)O [acetyl-farnesyl-cysteine],92.9,98.1,100,101,108,108,84.9,86.6,99.9,101,90.9,92.5,99.8,102,105,95.7,96.9,101,99,101,93.9,107,93,99.6,101,> 10,> 10,> 10,> 10,> 10,0,0,0,0,0
CCC[S+]([O-])c1ccc2[nH]c(NC(=O)OC)nc2c1 (stereo not given) [albendazole-oxide],101,98.8,96.6,101,102,114,104,103,95.7,107,107,103,98,106,83.7,105,101,101,99.6,103,103,104,102,101,94,> 10,> 10,> 10,> 10,> 10,0,0,0.2,0,0
O=C1c2cccc(O)c2C(=O)c2c(O)cc(CO)cc21 [aloe-emodin],99.3,104,98.8,92.4,91.8,93.4,92.5,103,97.8,97.6,95,100,90.6,105,95.2,97,98,98.6,96.9,102,103,104,101,102,98.5,> 10,> 10,> 10,> 10,> 10,0,0,0,0,0
CCCN(CCC)C(=O)Cc1c(-c2ccc(Cl)cc2)nc2ccc(Cl)cn12 [alpidem],91.5,103,102,104,100,95.7,96.4,96.2,98.9,107,92.5,94.6,96.6,102,95.1,92.6,97.4,95.9,104,112,102,99.6,104,97.4,112,> 10,> 10,> 10,> 10,> 10,0,0,0,0,0
O=C1c2c(O)cccc2Cc2cccc(O)c21 [anthralin],102,95.8,97.3,96.9,93.4,103,98.5,89.8,95.9,108,90.2,103,119,105,92.3,92.3,97.6,97,98.8,102,102,88.7,96,78.3,100,> 10,> 10,> 10,> 10,> 10,0,0,0,0,0
C[N+]1([O-])[C@@H]2CC[C@H]1C[C@@H](OC(=O)C(CO)c1ccccc1)C2 (stereo not given in full) [atropine-oxide],84,96.6,99.3,90.2,93.9,97.6,93.3,98.6,94.4,102,88,99.2,95.8,98.6,94.5,97.4,107,101,102,96.5,88.2,103,102,111,95.5,> 10,> 10,> 10,> 10,> 10,0,0,0,0,0
C[C@H]1C[C@H]2[C@@H]3CCC4=CC(=O)C=C[C@]4(C)[C@@]3(Cl)[C@@H](O)C[C@]2(C)[C@@]1(O)C(=O)CO [beclomethasone],108,88.6,95.2,98.4,112,102,97.3,103,95.3,91.5,92.7,110,96.7,106,113,97.5,92.9,101,95.8,94,94.4,90.4,93.5,99.8,110,> 10,> 10,> 10,> 10,> 10,0,0,0,0,0
NC[C@H]1O[C@H](O[C@H]2[C@H](O)[C@@H](O[C@H]3O[C@H](CO)[C@@H](O)[C@H](N)[C@H]3O)[C@H](N)C[C@@H]2N)[C@H](N)[C@@H](O)[C@@H]1O [bekanamycin],103,101,95.9,110,100,111,93,97.8,111,97.3,94.7,97.8,103,94.4,99.1,95.7,103,97.5,101,97.7,98.1,102,99.2,97.4,108,> 10,> 10,> 10,> 10,> 10,0,0,0,0,0
O=C(O)c1ccc(NC(=O)[C@H](Cc2ccc(O)cc2)NC(=O)c2ccccc2)cc1 [bentiromide],92.1,92,92.3,87,104,107,101,104,95.4,95,91.9,116,102,106,102,105,102,107,99.5,108,93.5,107,94.4,99,106,> 10,> 10,> 10,> 10,> 10,0,0,0,0,0
CCCCCCCCCCCCC[N+](C)(C)Cc1ccccc1 [benzalkonium],102,102,110,108,19.5,104,98.9,97,98.8,37.3,96.1,108,102,116,22.9,97.7,91.8,102,92.9,13.7,89,101,96.1,105,92.4,3.62,3.02,3.95,2.49,> 10,3.9,3.6,3.4,5.9,0
C[N+](C)(C)CC(=O)O [betaine],99.7,90,93.5,96.9,87.1,101,95.8,106,91.4,98.7,96.3,89.1,108,98.6,106,99.5,102,98.8,104,96.7,115,100,104,107,98.9,> 10,> 10,> 10,> 10,> 10,0,0,0,0,0
